Experimental data as given in ChEMBL document CHEMBL1134700, “Design, synthesis and characterisation of a peptide with oxaloacetate decarboxylase activity” (Bioorg Med Chem Lett, 2001).
Values joined by “and” are separate entries in the source; they are usually repeats but may differ in a detail not shown here. Identical values can stand only once.

What was measured:
[1] = Catalytic efficiency is the ratio of (kcat/KM)
[2] = target: L-lactate dehydrogenase B chain (Sus scrofa) (UniProt P00336); assay: Decarboxylation of oxaloacetate to produce pyruvate was measured by the conversion of NADH to NAD+ in the lactate dehydrogenase mediated transformation of pyruvate to lactate at a uM
[3] = target: L-lactate dehydrogenase B chain (Sus scrofa) (UniProt P00336); assay: (§1) Decarboxylation of oxaloacetate to produce pyruvate was measured bythe conversion of NADH to NAD+ in the lactate dehydrogenase mediated transformation of pyruvate to lactate at a uM
[4] = Decarboxylation of oxaloacetate to produce pyruvate was measured bythe conversion of NADH to NAD+ in the lactate dehydrogenase mediated transformation of pyruvate to lactate; expressed as Catalytic efficiency as the ratio of (kcat/KM)
[5] = tested on: CC(C)C[C@H](NC(=O)[C@H](C)NC(=O)[C@H](CCCCN)NC(=O)[C@H](CC(C)C)NC(=O)[C@H](CC(C)C)NC(=O)[C@@H](CCCCN)NC(=O)[C@H](C)NC(=O)[C@@H](N)CC(C)C)C(=O)N[C@@H](C)C(=O)N[C@@H](CCCCN)C(=O)N[C@@H](CC(C)C)C(=O)N[C@@H](CC(C)C)C(=O)N[C@@H](CCCCN)C(=O)N[C@@H](CCCCN)C(N)=O; assay: as §1
[6] = tested on: CC(=O)NCC(=O)N1CCC[C@H]1C(=O)N[C@@H](CO)C(=O)N[C@@H](CCC(N)=O)C(=O)N1CCC[C@H]1C(=O)N[C@H](C(=O)N[C@@H](Cc1ccc(O)cc1)C(=O)N1CCC[C@H]1C(=O)NCC(=O)N[C@@H](CC(=O)O)C(=O)N[C@@H](CC(=O)O)C(=O)N[C@@H](C)C(=O)N1CCC[C@H]1C(=O)N[C@H](C(=O)N[C@@H](CCC(=O)O)C(=O)N[C@@H](CC(=O)O)C(=O)N[C@@H](CC(C)C)C(=O)N[C@@H](CCCCN)C(=O)N[C@@H](CCCN=C(N)N)C(=O)N[C@@H](Cc1ccccc1)C(=O)N[C@@H](Cc1ccc(O)cc1)C(=O)N[C@@H](CCCCN)C(=O)N[C@@H](CC(N)=O)C(=O)N[C@@H](CC(C)C)C(=O)N[C@@H](CCCCN)C(=O)N[C@@H](CCC(N)=O)C(=O)N[C@@H](Cc1ccc(O)cc1)C(=O)N[C@@H](CC(C)C)C(=O)N[C@@H](CCCCN)C(=O)N[C@H](C(=O)N[C@H](C(N)=O)C(C)C)C(C)C)C(C)C)[C@@H](C)O; assay: as §1

Chain of L-lactate dehydrogenase B chain (Sus scrofa) (P00336 whole entry): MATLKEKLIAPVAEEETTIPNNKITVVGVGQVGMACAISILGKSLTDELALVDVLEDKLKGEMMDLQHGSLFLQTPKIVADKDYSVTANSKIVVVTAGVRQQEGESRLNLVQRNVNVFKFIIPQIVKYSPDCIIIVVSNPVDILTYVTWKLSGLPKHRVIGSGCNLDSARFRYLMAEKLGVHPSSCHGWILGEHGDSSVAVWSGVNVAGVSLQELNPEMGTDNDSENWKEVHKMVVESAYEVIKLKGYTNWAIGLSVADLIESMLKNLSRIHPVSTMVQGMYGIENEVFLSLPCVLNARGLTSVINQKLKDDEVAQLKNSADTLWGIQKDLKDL
Chain of L-lactate dehydrogenase B chain (Sus scrofa), P00336 (P00336 whole entry): as above

| k cat/Km [1] | k cat [3] [s⁻¹] | k cat/Km [4] [M⁻¹ s⁻¹] | Compound | other results |
| --- | --- | --- | --- | --- |
| 0.153 M⁻¹ s⁻¹ and 0.071 M⁻¹ s⁻¹ | 0.0075 |  | CC(C)C[C@H](NC(=O)[C@H](C)NC(=O)[C@H](CCCCN)NC(=O)[C@H](CC(C)C)NC(=O)[C@H](CC(C)C)NC(=O)[C@@H](CCCCN)NC(=O)[C@H](C)NC(=O)[C@@H](N)CC(C)C)C(=O)N[C@@H](C)C(=O)N[C@@H](CCCCN)C(=O)N[C@@H](CC(C)C)C(=O)N[C@@H](CC(C)C)C(=O)N[C@@H](CCCCN)C(=O)N[C@@H](CCCCN)C(N)=O | k cat [2]: 0.015 s⁻¹ |
|  |  | 0.0005 | CCCCN |  |
| 1.74 M⁻¹ s⁻¹ | 0.086 |  | Ac-GPSQPTYPGDDAPVEDLKRFYKNLKQYLKVV-NH2 |  |
|  |  | 0.011 | NCC(N)=O |  |
|  |  |  | L-lactate dehydrogenase B chain (Sus scrofa), P00336 | Km [5]: 48 mM; Km [6]: 49.4 mM |
